Data as given in patent publication US20130059773A1, “COMPOUNDS FOR THE TREATMENT OF INFLAMMATION AND NEUTROPENIA” (priority 2010, published 2013).
“Also recorded” adds a separate entry of the source. Where a SMILES comes first, the peptide text is derived from it. The star is where a group is joined. Cbz = O=C(OCc1ccccc1)*

Legend:
Format in all cases: cell-based, human
PCNA = PCNA expression in neutrophils by Western blot; settings: for Effect of proteasome inhibitors on apoptosis-induced PCNA diminution: neutrophils 15 h at 37° C.
Method: Western blot analysis and co-immunoprecipitation experiments. Neutrophils were sonicated and cytosolic proteins were analyzed using either the PC10 mAb or the Ab5 pAb anti-PCNA according to standard immunoblot procedures (Moriceau et al. 2009, J. Immunol. 182:7254-7263). Co-immunoprecipitation experiments were performed using neutrophil cytosols obtained by cavitation (Witko-Sarsat et al. 1999, Blood 94:2487-2496). Cytosol ([…]) was mixed with […] of protein G and Ab5 pAb and incubated for 30 min at 4° C. under shaking. The sample was loaded onto a column containing Sepharose-coated magnetic beads (Milteny), washed with a stringent washing buffer (50 mM Tris, 500 mM NaCl, 1% NP-40, 0.5% Triton X-100). The column was washed twice with this buffer, twice with the same buffer except that the NaCl was 300 mM and, finally, 5 times with a hyposaline buffer (20 mM Tris pH 7.5). The sample was eluted from the column with […] 5× sample buffer and analyzed by Western blotting using different mAb to potential partners. PCNA was detected on the Western blot with the PC10 mAb and procaspases were detected with either anti-procaspase-8 (Calbiochem) mAb or mouse anti-procaspase-10 (Santa Cruz) or anti-procaspase-9 (Santa Cruz) or anti-procaspase-3 (Santa Cruz) mAbs, followed by horseradish peroxidase-conjugated anti-mouse IgG (Nordic Immunology diluted 1:5000), using the SuperSignal West Pico detection kit (Pierce).

neutrophils [1] = assay: Neutrophil apoptosis/survival by phosphatidylserine externalization after annexin-V and 7-AAD labeling; settings: for Effect of proteasome inhibitors on neutrophil death: neutrophils 15 h at 37° C.
Method: Analysis of apoptosis. Neutrophil apoptosis was triggered by incubating neutrophils at 37° C. alone (constitutive apoptosis) or with anti-Fas mAb (10 ng/ml; Beckman-Coulter) or gliotoxin ([…]; Sigma) (Ward et al. 1999, J. Biol. Chem. 274:4309-4318) for the indicated times. Neutrophil apoptosis was evaluated by phosphatidylserine externalization after annexin-V and 7-AAD labeling (Kantari et al. 2007, Blood 110:4086-4095); mitochondrial depolarization after DiOC6 labeling (Moriceau et al. 2009, J. Immuno1.182:7254-7263); caspase-3 and caspase-8 activities measured by spectrophotometry (Biovision) in neutrophil lysates. In DMF-differentiated-PLB985 cells, apoptosis was triggered by gliotoxin or by rTRAIL (10 ng/ml; RD System) (Yin et al. 2005, Int. J. Biochem. Cell Biol. 37:1696-1708) and caspase-8 and caspase-9 activities were determined after gating on CD11b^+ cells using the Caspase-Glow® assay (Promega). Apoptosis-induced chromatin condensation and DNA fragmentation were assessed, respectively, after DNA staining with the blue fluorescent dye Hoechst (5 mg/ml) and propidium-iodide staining (Goepel et al. 2004, J. Leukoc. Biol. 75:836-843). Carboxyp21 ([…], SEQ ID NO: 24) corresponding to the p21 carboxy-terminus sequence (residues 141-160) and containing a RYIRS carboxy-terminal extension to facilitate its cell entry was synthesized and purified (Genecust). A modified peptide in which the charged amino acids responsible for its binding to PCNA have been changed according to dynamic simulation studies ([…], SEQ ID NO: 25) served as control. The effect of PS-341 (LC Laboratories) and MG132 were tested on neutrophil apoptosis and PCNA expression as indicated.

neutrophils [2] = assay: Effects of the peptides on neutrophil apoptosis (annexin V / 7-AAD flow cytometry); settings: for Early Apoptosis, Mean / Late Apoptosis, Mean / Total Apoptosis, Mean: peptide concentration = 200 μM, 16 h at 37° C.; for Early Apoptosis, Mean: percentage annexin-V positive and 7-AAD negative; for Late Apoptosis, Mean: percentage annexin-V positive and 7-AAD positive; for Total Apoptosis, Mean: percentage of cells either 7-AAD or annexin-V-positive; for Early Apoptosis / Late Apoptosis / Total Apoptosis: peptide concentration = 500 μM
Method: Effects of the peptides on neutrophil apoptosis. Neutrophils were isolated from the blood of healthy volunteers using polymorphoprep (Witko-Sarsat et al. 1999; Blood 94:2487-96). Physiological apoptosis of these neutrophils was then activated by incubating them at 37° C. during 16 h in RPMI culture medium complemented with 10% serum. Under these conditions, neutrophils undergo a spontaneous apoptosis which can be evaluated by measuring the phosphatidylserine externalization (Kantari et al. 2007; Blood 110:4086-95; Moriceau et al. 2009; J Immunol 182:7254-63). Phosphatidylserine was stained using a fluorochrome-coupled annexin V allowing detection of apoptotic neutrophils by flow cytometry using a Facscan (Beckton Dickinson). Neutrophils stained with annexin V express the phosphatidylserine and are recognized and phagocytosed by macrophages. Furthermore, a secondary staining with the 7AAD intercalating agent was used to indicate late apoptosis (Durant et al. 2004; J Leukocyte Biol 75:87-98). Thus, total apoptosis is measured by the percentage of cells being either 7-AAD or annexin-V-positive (the rest of the cells being considered as viable). Early apoptosis is measured by the percentages of neutrophils being both annexin-V positive and 7-AAD negative. Late apoptosis is measured by the percentages of neutrophils being both annexin-V positive and 7-AAD positive. The necrotic cells being 7AAD positive are excluded from the analysis on the basis of the data of size/granulometry by flow cytometry analysis. […]
The peptides were added to the neutrophil cells and their effect on cell apoptosis was analyzed by measuring the phosphatidylserine externalization. Phosphatidylserine was stained using a fluorochrome-coupled annexin V allowing detection of apoptotic neutrophils by flow cytometry. Neutrophils stained with annexin V express the phosphatidylserine and are recognized and phagocytosed by macrophages. Furthermore, a secondary staining with the 7AAD intercalating agent was used to indicate late apoptosis, allowing distinction between early and late apoptosis.

neutrophils [3] = assay: Neutrophil apoptosis by mitochondrial depolarization after DiOC6 labeling; design: dose or concentration left out as unconfirmed; settings: 6 h at 37° C., peptide
Method: Analysis of apoptosis. Neutrophil apoptosis was triggered by incubating neutrophils at 37° C. alone (constitutive apoptosis) or with anti-Fas mAb (10 ng/ml; Beckman-Coulter) or gliotoxin ([…]; Sigma) (Ward et al. 1999, J. Biol. Chem. 274:4309-4318) for the indicated times. Neutrophil apoptosis was evaluated by phosphatidylserine externalization after annexin-V and 7-AAD labeling (Kantari et al. 2007, Blood 110:4086-4095); mitochondrial depolarization after DiOC6 labeling (Moriceau et al. 2009, J. Immuno1.182:7254-7263); caspase-3 and caspase-8 activities measured by spectrophotometry (Biovision) in neutrophil lysates. In DMF-differentiated-PLB985 cells, apoptosis was triggered by gliotoxin or by rTRAIL (10 ng/ml; RD System) (Yin et al. 2005, Int. J. Biochem. Cell Biol. 37:1696-1708) and caspase-8 and caspase-9 activities were determined after gating on CD11b^+ cells using the Caspase-Glow® assay (Promega). Apoptosis-induced chromatin condensation and DNA fragmentation were assessed, respectively, after DNA staining with the blue fluorescent dye Hoechst (5 mg/ml) and propidium-iodide staining (Goepel et al. 2004, J. Leukoc. Biol. 75:836-843). Carboxyp21 ([…], SEQ ID NO: 24) corresponding to the p21 carboxy-terminus sequence (residues 141-160) and containing a RYIRS carboxy-terminal extension to facilitate its cell entry was synthesized and purified (Genecust). […]

| Compound | Early Apoptosis, Mean (neutrophils [2]) | Late Apoptosis, Mean (neutrophils [2]) | Total Apoptosis, Mean (neutrophils [2]) | Early Apoptosis (neutrophils [2]; Table VI (peptides 5-9)) | Late Apoptosis (neutrophils [2]; Table VI (peptides 5-9)) | Total Apoptosis (neutrophils [2]; Table VI (peptides 5-9)) | also measured |
| --- | --- | --- | --- | --- | --- | --- | --- |
| CC(C)C[C@@H](C=O)NC(=O)[C@H](CC(C)C)NC(=O)[C@H](CC(C)C)NC(=O)OCc1ccccc1 [MG132, reference compound] (Cbz-Leu-Leu-Leu-aldehyde) |  |  |  |  |  |  | Effect of proteasome inhibitors on apoptosis-induced PCNA diminution (PCNA): reversed the apoptosis-induced PCNA diminution; Effect of proteasome inhibitors on neutrophil death (neutrophils [1]): significantly inhibited neutrophil death |
| CC(C)C[C@H](NC(=O)[C@H](Cc1ccccc1)NC(=O)c1cnccn1)B(O)O [PS-341, reference compound] |  |  |  |  |  |  | Effect on PCNA degradation after incubation with anti-Fas or gliotoxin (PCNA; 6 h at 37° C., PS-341 (1 mM)): reversed PCNA degradation; Effect of proteasome inhibitors on apoptosis-induced PCNA diminution (PCNA): reversed the apoptosis-induced PCNA diminution; Effect of proteasome inhibitors on neutrophil death (neutrophils [1]): significantly inhibited neutrophil death |
| APNQEKVSDYEMKLMRYIRS [peptide 1] | 62.52 | 11.47 | 73.67 |  |  |  | Early Apoptosis (neutrophils [2]; Table V (peptides 1-4)): 65.06; Late Apoptosis (neutrophils [2]; Table V (peptides 1-4)): 6.62; Total Apoptosis (neutrophils [2]; Table V (peptides 1-4)): 68.74 |
| KDGVKFRYIRS [peptide 5] | 62.44 | 12.36 | 74.36 | 75.21 | 5.39 | 77.67 |  |
| KRRQTGETDFDHAKAALIFSRYIRS [modified carboxy-21 peptide, reference compound] |  |  |  |  |  |  | Apoptotic neutrophils as cells with depolarized mitochondria after DiOC6 labeling (neutrophils [3]): no such activity was observed |
| KRRQTSMTDFYHSKRRLIFSRYIRS [carboxyp21] |  |  |  |  |  |  | PCNA expression in neutrophils exposed to increasing peptide concentrations (PCNA; 3 h, increasing carboxyp21 concentrations): dose-dependent decrease of PCNA expression; Apoptotic neutrophils as cells with depolarized mitochondria after DiOC6 labeling (neutrophils [3]): triggered neutrophil apoptosis; Cells with externalized phosphatidylserine after annexin-V labeling (neutrophils [1]; 6 h at 37° C., 50 mM peptide): significantly increased percentage of cells with externalized phosphatidylserine; Effect on G-CSF-induced neutrophil survival (neutrophils [1]; G-CSF 1000 U/ml, carboxyp21 50 μM, 15 h): significantly inhibited G-CSF-induced neutrophil survival |
| MKLMDLDVEQLGIPEQEYSRYIRS [peptide 3] | 63.00 | 13.27 | 76.20 |  |  |  | Pro- or anti-apoptotic activity on neutrophils, conclusion in words (neutrophils [2]): exhibit a pro-apoptotic activity on neutrophils; Effect on annexin V staining (neutrophil apoptosis), in words (neutrophils [2]; 500 μM): induced an increase of the annexin V staining; Early Apoptosis (neutrophils [2]; Table V (peptides 1-4)): 68.05; Late Apoptosis (neutrophils [2]; Table V (peptides 1-4)): 12.63; Total Apoptosis (neutrophils [2]; Table V (peptides 1-4)): 78.56 |
| MSADVPLRYIRS [peptide 7] | 62.60 | 12.30 | 74.40 | 66.26 | 2.85 | 64.85 |  |
| SQTSNVDKEEEAVRYIRS [peptide 6] | 62.91 | 13.11 | 76.02 | 66.43 | 5.2 | 67.42 |  |
| YGRKKRRQRRRAPNQEKVSDYEMKLM [peptide 2] | 52.29 | 17.38 | 69.33 |  |  |  | Early Apoptosis (neutrophils [2]; Table V (peptides 1-4)): 46.92; Late Apoptosis (neutrophils [2]; Table V (peptides 1-4)): 23.97; Total Apoptosis (neutrophils [2]; Table V (peptides 1-4)): 68.08 |
| YGRKKRRQRRRMKLMDLDVEQLGIPEQEYS [peptide 4] | 62.34 | 27.88 | 89.83 |  |  |  | Pro- or anti-apoptotic activity on neutrophils, conclusion in words (neutrophils [2]): exhibit a pro-apoptotic activity on neutrophils; Effect on annexin V staining (neutrophil apoptosis), in words (neutrophils [2]; 200 μM): induced an increase of the annexin V staining; Pro-apoptotic activity on late apoptosis, in words (neutrophils [2]; 200 μM, Table IV): particularly obvious on late apoptosis; Early Apoptosis (neutrophils [2]; Table V (peptides 1-4)): 53.11; Late Apoptosis (neutrophils [2]; Table V (peptides 1-4)): 33.74; Total Apoptosis (neutrophils [2]; Table V (peptides 1-4)): 82.84 |
| YGRKKRRQRRRYYLAPKIEDEEGS [peptide 9] | 50.03 | 23.90 | 73.43 | 48.44 | 26.32 | 71.84 | Pro- or anti-apoptotic activity on neutrophils, conclusion in words (neutrophils [2]): capable of preventing neutrophil apoptosis |
| YYLAPKIEDEEGSRYIRS [peptide 8] | 40.67 | 6.23 | 46.43 | 48.94 | 8.99 | 48.77 | Pro- or anti-apoptotic activity on neutrophils, conclusion in words (neutrophils [2]): significant anti-apoptotic activity; also recorded: capable of preventing neutrophil apoptosis |
| interferon-g: cytokine that prolongs neutrophil survival |  |  |  |  |  |  | Effect on PCNA degradation in neutrophils (PCNA): prevented PCNA degradation |
